In patent US10537603B2, “Pharmaceutical composition for preventing or treating angioedema, containing extract of peony root or mixture of peony root and licorice as active ingredient” (Korea Institute of Oriental Medicine, priority 2014, dated 2020):

Tests used:
[1] = tested on: advanced glycation end product (AGE) generation; experiment: Inhibition of advanced glycation end product (AGE) generation, BSA with fructose/glucose, fluorescence; type: biochemical; details: BSA 10 mg/ml, 0.2 M fructose + 0.2 M glucose, 37° C., 7 days
Experimental: To determine the inhibitory effect of advanced glycation end product generation of the peony root extract, or the mixed extract of peony root and licorice, the present inventors used 10 mg/ml of bovine serum albumin (Sigma, St. Louis, Mo., USA) dissolved in 50 mM phosphate buffer (pH 7.4) as a protein source and a mixed liquid of 0.2 M fructose and 0.2 M glucose as a sugar source, respectively.
The extracts of <Example 1> and a positive control group (aminoguanidine) were dissolved in 30 μl of 0.2% DMSO, and then again dissolved in 15% tween 80. The protein source, the sugar source and the extracts of the present invention as prepared above were mixed and compounded to a total of 1 ml, and then each cultured at 37° C. for 7 days to allow for glycation. At this time 0.02% azide (sodium azide) was added thereto to prevent from generating bacteria during the culture period. After the culture fluorescence (spectrofluorometric detector; Bio-TEK, Synergy HT, USA; Ex: 350 nm; Em: 450 nm) was measured and then calculated with Equation 1 below, with showing the result in Table 2.

[2] = tested on: human retinal pigment epithelial cell lines (ARPE-19); details: ARPE-19, Molecular Vision 2011; 17: 3512-3522; cited from earlier work
[3] = tested on: MNU-induced animal models; experiment: Comparison of CJG30R and paeoniflorin in MNU-induced age-related macular degeneration model (ONL thickness); type: in vivo, C57BL/6 mice; details: CJG30R 100 mg/kg, PF 6.5 mg/kg oral
Experimental: The 6-week-old male C57BL/6 mice were used after acclimatization for 1 week. To induce damage and degeneration of photoreceptor cells among morphological changes of retinal tissues appearing in macular degeneration, 1% (0.05% acetic acid) N-methyl-N-nitrosourea (MNU, Sigma, USA) was intraperitoneally injected to the 7-week-old male C57BL/6 mice (60 mg/kg). The same amount of 0.05% acetic acid was intraperitoneally administered to the normal group. CJG30R (100 mg/kg) and PF-6.6 (6.5 mg/kg) as test drugs were suspended and compounded in 0.5% sodium carboxymethyl cellulose (CMC), orally administrated one day before MNU administration, and orally administrated once per day for 7 days after MNU administration. The same amount of 0.5% CMC was orally administrated to the normal group and the MNU-induced group. After completing administration of the test drugs, eyes were enucleated by carrying out an autopsy on the mice, and then mounted on 10% neutralized formalin for one day and embedded in paraffin to prepare slide sections. Slide sections were stained with Hematoxylin & Eosin (H & E) and observed under an optical microscope. The damage and degeneration of the photoreceptor cells were measured and evaluated by thickness changes in the outer nuclear layer of the retinal tissues.

IC50, inhibitory effect of advanced glycation end product generation [1] [µg/mL]	Compound	Effect on cell death due to H2O2 and oxidative stress [2]	Effect on outer nuclear layer damage as compared to the MNU administration group [3]	ONL thickness (AU) ([3]; MNU 60 mg/kg i.p., NOR 1.99 ± 0.21, MNU 0.92 ± 0.17)	ONL thickness (%) ([3]; NOR = 100, MNU = 0)
81.38 ± 2.70	N=C(N)NN [Aminoguanidine, aminoguanidine]				
	C[C@@]12C[C@@]3(O)O[C@@H](O1)[C@]1(COC(=O)c4ccccc4)[C@H]3C[C@@]12O[C@@H]1O[C@H](CO)[C@@H](O)[C@H](O)[C@H]1O [PF-6.5, paeoniflorin]	inhibitory effects	no effect at all	0.96 ± 0.17	3.52 ± 16.11
